This note sets out measurements from article PMC6225212, “Synthesis and Pharmacological Evaluation of Novel Silodosin-Based Arylsulfonamide Derivatives as α1A/α1D-Adrenergic Receptor Antagonist with Potential Uroselective Profile” (Molecules : A Journal of Synthetic Chemistry and Natural …, 2018).

Each structure is given as a SMILES string. “Also recorded” adds a separate entry of the source.

For data set [1], the system named is normotensive anaesthetized rats. Kind of data set: Effect on blood pressure after single i.v. administration in normotensive anaesthetized rats. The class given is in vivo, rat. The note with it: 2 mg/kg i.v. The procedure: The experiments were performed to our previously reported method.
Identified compounds 9 and 10 with favorable α1B/α1D profile and acceptable metabolic stability were selected for in vivo tests to evaluate their influence on blood pressure. Hypotensive activity was determined after one time i.v. administration to normotensive anaesthetized rats at single doses of 2 mg/kg according to our previously reported method.
The experiments were carried out on male Wistar rats (body weight 200–250 g). The animals were housed in pairs in plastic cages in constant-temperature facilities exposed to a 12:12 h light/dark cycle; water and food were available ad libitum. Experimental groups consisted of 6 animals each. All experiments were conducted in accordance with the NIH Guide for Care and Use of Laboratory Animals and were approved by the Animal Use and Care Committee of the Jagiellonian University (2012, Kraków, Poland).
The normotensive rats were anesthetized with thiopental (70 mg/kg) by i.p. injection. The left carotid artery was cannulated with polyethylene tubing filled with heparin solution in saline to facilitate pressure measurements using PowerLab Apparatus (ADInstruments, Sydney, Australia). Blood pressure was measured: before administration of the compounds—time 0 min (control pressure), and 60 min thereafter. For each compound, studies were performed in the dose of 2 mg/kg b.w. Compounds were dissolved in water and administered intravenously. Initial blood pressure before administration of the tested compounds in all groups was similar.
Statistical calculations were carried out with the GraphPadPrism 6 program (GraphPad Software). Results are given as the arithmetic means with standard deviation (SD). The statistical significance was calculated using a one-way ANOVA and posthoc Bonfferoni Test in comparison to 0.9% NaCl. Differences were considered statistically significant at: * p ≤ 0.05, ** p ≤ 0.01, *** p ≤ 0.001.

In data set [2] the target is T1, adrenergic β1-AR (Homo sapiens, UniProt P08588).
T1 construct: Eurofins (Celle-Lévescault, France)
Kind of data set: Off-target panel at Eurofins Cerep, β1. The class given is binding. The procedure: (§1) Finally, the percentage of inhibition for selected compounds 9 and 10 for off-target histaminic H1R, muscarinic M1R, adrenergic β1-AR and potassium ion channel hERG were assessed at Eurofins (Celle-Lévescault, France) according to the procedure online at www.eurofins.com.

In data set [3] the target is α2-ARs. Put plainly: Radioligand binding, displacement of [3H]-Clonidine from α2-ARs on rat cerebral cortex. The conditions noted are these: ± SEM, two independent experiments. The procedure:
The pharmacological profile of the new compounds was assessed in radioligand-binding assays as the ability to displace [^3H]-Prazosin or [^3H]-Clonidine from α1- and α2-ARs, respectively, on rat cerebral cortex. The inhibition constants (Ki) were calculated from the Cheng-Prusoff equation [24].
The affinity of the obtained compounds was evaluated by radioligand-binding assays (the ability to displace [^3H]-Prazosin and [^3H]-Clonidine from α1- and α2-ARs, respectively) on rat cerebral cortex. The brains are homogenized in 20 volumes of an ice-cold 50 mM Tris-HCl buffer (pH 7.6) and is centrifuged (MPW Med. Instruments, Warsaw, Poland) at 20,000 g for 20 min (0–4 °C). The cell pellet is resuspended in the Tris-HCl buffer and centrifuged again. Radioligand-binding assays are performed in plates (MultiScreen/Millipore, Burlington, MA, USA). The final incubation mixture (final volume 300 µL) consisted of 240 µL of the membrane suspension, 30 µL of [^3H]-Prazosin (0.2 nM) or [^3H]-Clonidine (2 nM) solution, and 30 µL of the buffer containing seven to eight concentrations (10^−11 to 10^−4 M) of the tested compounds. For measuring the unspecific binding, phentolamine, 10 µM (in the case of [^3H]-Prazosin) and clonidine, and 10 µM (in the case of [^3H]-Clonidine), were applied. The incubation was terminated by rapid filtration over glass fiber filters (Whatman GF/C, Sigma-Aldrich) using a vacuum manifold (Millipore). The filters were then washed twice with the assay buffer and placed in scintillation vials with a liquid-scintillation cocktail. Radioactivity was measured in a WALLAC 1409 DSA liquid-scintillation counter (BioSurplus, San Diego, CA, USA). All the assays were made in duplicate.

The target in data set [4] is T2, α1A-ARs (Homo sapiens, UniProt P35348).
T2 sequence (P35348 1-466): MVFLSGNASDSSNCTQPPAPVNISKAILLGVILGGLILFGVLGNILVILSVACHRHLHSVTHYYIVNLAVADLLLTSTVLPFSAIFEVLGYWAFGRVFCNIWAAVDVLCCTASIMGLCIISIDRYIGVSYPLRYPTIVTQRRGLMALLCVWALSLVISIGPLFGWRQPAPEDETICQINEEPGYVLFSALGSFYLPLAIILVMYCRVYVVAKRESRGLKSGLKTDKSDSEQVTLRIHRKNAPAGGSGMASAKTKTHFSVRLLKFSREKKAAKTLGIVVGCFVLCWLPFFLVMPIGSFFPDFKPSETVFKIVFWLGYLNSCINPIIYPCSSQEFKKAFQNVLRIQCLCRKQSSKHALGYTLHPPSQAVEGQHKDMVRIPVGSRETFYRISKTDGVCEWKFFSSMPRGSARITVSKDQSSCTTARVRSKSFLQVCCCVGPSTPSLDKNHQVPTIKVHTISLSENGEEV
Kind of data set: Intrinsic activity at α1A-ARs, β-lactamase reporter gene, FRET substrate. The class given is cell-based. The arrangement: key to α1A Profile: ANT—antagonist; AGO—agonist. The conditions noted are these: for IC50: antagonist mode, three independent experiments; for α1A Profile: functional profile.
Procedure: The intrinsic activity at α1A-ARs of the selected compounds was assessed by fluorescence detection (Invitrogen, Thermo Fisher Scientific, Carlsbad, CA, USA) of β-lactamase reporter genes using a FRET-enabled substrate. […] Intrinsic activity assay was performed according to the manufacturer of the assay kit (Invitrogen, Thermo Fisher Scientific corporation, Carlsbad, CA, USA). The cells were harvested and suspended in Assay Medium to a density of 312,500 cells/mL. Of the cell suspension, 32 µL per well was added to the Test Compound wells, the Unstimulated Control wells, and Stimulated Control wells and incubated per 16–24 h. […] Then, both the agonist and the antagonist plate were incubated in a humidified 37 °C/5% CO2 incubator for 5 h. After the incubation 8 µL of LiveBLAzer™-FRET B/G Substrate Mixture (CCF4-AM, Thermo Fisher Scientific corporation) was loaded cells in the absence of direct strong lighting, covered, and incubated at room temperature for 2 h.

The target in data set [5] is T3, histaminic H1R (Homo sapiens, UniProt P35367).
T3 construct: Eurofins (Celle-Lévescault, France)
Kind of data set: Off-target panel at Eurofins Cerep, H1. The class given is binding. The conditions noted are these: read-out: inhibition at histamine H1. The procedure: as §1

T3 sequence (P35367 whole entry): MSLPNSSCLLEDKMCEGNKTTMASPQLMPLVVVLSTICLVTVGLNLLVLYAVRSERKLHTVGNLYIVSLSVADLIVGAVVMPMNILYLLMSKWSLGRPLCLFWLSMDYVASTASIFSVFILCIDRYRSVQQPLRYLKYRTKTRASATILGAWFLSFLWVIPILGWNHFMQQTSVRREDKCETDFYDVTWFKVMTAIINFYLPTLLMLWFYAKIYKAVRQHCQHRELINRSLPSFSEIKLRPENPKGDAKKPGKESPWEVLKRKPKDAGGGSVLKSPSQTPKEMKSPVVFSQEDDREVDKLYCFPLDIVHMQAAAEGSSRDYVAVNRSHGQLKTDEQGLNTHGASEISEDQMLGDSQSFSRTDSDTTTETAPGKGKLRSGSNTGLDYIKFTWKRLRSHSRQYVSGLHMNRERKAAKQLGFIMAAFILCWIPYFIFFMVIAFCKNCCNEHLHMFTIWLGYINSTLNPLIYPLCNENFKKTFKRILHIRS
T1 sequence (P08588 whole entry): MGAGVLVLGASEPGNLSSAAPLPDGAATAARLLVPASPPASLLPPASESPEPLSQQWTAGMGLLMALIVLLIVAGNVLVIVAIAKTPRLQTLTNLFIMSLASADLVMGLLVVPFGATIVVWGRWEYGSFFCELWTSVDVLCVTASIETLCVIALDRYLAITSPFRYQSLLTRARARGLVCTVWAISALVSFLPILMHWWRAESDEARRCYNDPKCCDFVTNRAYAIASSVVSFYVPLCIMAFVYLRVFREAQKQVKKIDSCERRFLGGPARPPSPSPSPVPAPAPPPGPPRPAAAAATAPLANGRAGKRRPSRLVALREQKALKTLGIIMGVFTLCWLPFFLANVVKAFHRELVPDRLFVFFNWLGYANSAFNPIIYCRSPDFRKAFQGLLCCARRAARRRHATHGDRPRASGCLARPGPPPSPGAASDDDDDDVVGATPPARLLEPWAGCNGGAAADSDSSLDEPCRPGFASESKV

The inhibition is the relative decrease from the control value, in per cent. As usually defined, the Ki is a measure of affinity in units of concentration, obtained from inhibition or displacement. Broadly, the IC50 is the concentration at which inhibition is half-maximal. For `O=S(=O)(NCC1CCN(CCOc2ccccc2OCC(F)(F)F)CC1)c1cc(Cl)ccc1F` [Compound 10, 5-Chloro-2-fluoro-N-[(1-{2-[(2,2,2-trifluoroethoxy)phenoxy]ethyl}piperidin-4-yl)methyl]benzenesulfonamide], the “effect on blood pressure, in words (significance vs 0.9% NaCl)” value (“effect … (significance vs 0.9% NaCl)” below) in data set [1] is on record as “statistically significant drop in systolic blood pressure was observed from 30 min after administration”. Moreover, in data set [2], the inhibition at 1 µM is < 50%. The molecule also showed a Ki in data set [3] of 579 ± 20 nM. Further, in data set [4], the IC50 came to 2.1 nM and the “α1A Profile” value is given as “ANT”. For the same molecule, in data set [5], the inhibition at 1 µM is < 50%.

For `CCOc1ccccc1OCCN[C@H](C)Cc1ccc(OC)c(S(N)(=O)=O)c1` [tamsulosin, reference compound], the “effect … (significance vs 0.9% NaCl)” value in data set [1] was “significantly through whole period of observation”. Besides, in data set [1] (over 60 min), the “decrease of DBP” value is given as 13.3–16.6 mmHg. Further, the “α1A Profile” value in data set [4] is reported as “ANT”.

The term EC50 denotes the concentration that produces a half-maximal response. For the molecule `O=S(=O)(NCC1CCN(CCOc2ccccc2OCC(F)(F)F)CC1)c1cccc(Cl)c1F` [Compound 9, 3-Chloro-2-fluoro-N-[(1-{2-[(2,2,2-trifluoroethoxy)phenoxy]ethyl}piperidin-4-yl)methyl]benzenesulfonamide], the “effect … (significance vs 0.9% NaCl)” value in data set [1] was “did not decrease systolic and diastolic blood pressure; also recorded: insignificantly”. For the same molecule, the inhibition at 1 µM in data set [2] was < 50%. In addition, in data set [3], affinity was put at a Ki of 858 ± 69 nM. In data set [4], the IC50 was determined as 0.8 nM and the “α1A Profile” value is “ANT”. The EC50 in data set [4] (antagonist, in abstract) is 0.8 nM. Also, the “functional preference over the α1B subtype” value in data set [4] (α1B vs α1A functional potency) is 5 fold. In addition, the inhibition at 1 µM in data set [5] is < 50%.
